The subject of assay [1] is CD4-positive T cells derived from the mutant mouse. In words: Cytokine-dependent cell proliferation activity (WST-8 assay). It is filed as cell-based. Particulars: cytokine/PMA-stimulated, 48 hours culture, Jak inhibitor I 3-100 nM, Jak3 inhibitor I 125-500 μM. The protocol:
Cytokine-dependent cell proliferation activity was measured as described below. Single cells of the thymus in suspension were cultured at a density of 5×10^5 cells/well, and stimulated with PMA (10 ng/ml) [IL-2 (25 ng/ml), IL-4 (25 ng/ml), IL-6 (100 ng/ml), IL-7 (25 ng/ml), IL-12 (1-100 ng/ml) or IFN-γ (100 ng/ml) (Peprotech and R&D) was added]. Used in some experiments was the pan-Jak inhibitor Jak inhibitor I (3-100 nM, pyridone 6; Calbiochem) or Jak3 inhibitor I (125-500 μM, WHI-P131; Calbiochem). The cells were cultured for 48 hours, and their proliferation was measured by an assay using WST-8 (Nacalai Tesque) and soluble tetrazolium/formazan.
(In general: Tetrazolium assays rely on reduction of a dye to a coloured formazan, in cell work by metabolically active cells.)

In the next assay the test system is Jak1. The following applies: Kumamoto T. et al., Cancer Lett. 2009; cited from earlier work.
In another assay the test system is EGF receptor (EGFR). The following applies: Kumamoto T. et al., Cancer Lett. 2009; cited from earlier work.
For assay [2], the system named is ear skins of mutant mice. Kind of assay: Topical application of Jak inhibitor to ear skin of mutant mice, development of dermatitis. It is filed as in vivo, mouse. The protocol: (§1) A mouse model of atopic dermatitis was generated according to a detailed protocol reported [Masuya et al., Hum Mol Genet. 16, 2366-2375 (2007); http://www.brc.riken.jp/lab/gsc/mouse/]. C57BL/6J mice and C3H/HeJ mice were purchased from CLEA Japan. C57BL/6-kit^W-sh/W-sh mice were obtained from the RIKEN BioResource Center. C57BL/6-RAG1^−/− mice were allowed to propagate spontaneously. Severity scores were determined using an improved version of a reported scale [Matsuda et al., Int Immunol. 9, 461-466 (1997)]. The mice were reared in an SPF (specific pathogen-free) environment and subjected to experiments in compliance with the guidelines with the approval of RIKEN's Animal Experiment Committee.
(§2) Jak inhibitor I (150 μM, pyridone 6; Calbiochem) in suspension in acetone/olive oil (4:1), 10 μl, was topically applied to the ventral and dorsal parts of the ear skin of each mutant mouse three times a week, starting at 4 weeks after birth.
The above-described Example has shown that dermatitis in the mutant mice is caused by excess activation of Jak1 and resulting defect of the skin barrier. To verify this hypothesis, a Jak inhibitor was coated on the ear skins of mutant mice at 4 weeks after birth and their litter mates. To allow the inhibitor to deeply penetrate the epidermal layer, a combination of acetone and olive oil was used as the solvent for the inhibitor. In fact, this solvent itself was harmful to the formation of the epidermal barrier; the development of dermatitis in the mutant mice was promoted by administering this solvent.

Assay [3] has as its system pY-Jak1 and Ki67 in the ear skins of the mutant mice. In words: Histoimmunological staining of differentiation marker molecules in ear skin after Jak inhibitor. It is filed as in vivo, mouse. Particulars: mutant mice treated with Jak inhibitor for 2 weeks from Week 4 of age. The protocol:
as §2
For analysis by immunofluorescence, frozen ear tissue specimens were fixed and stained using an antibody against pY-Jak1 (Cell Signaling), an antibody against Ki67 (Abcam), and an antibody against K6, K14 or K10 (Covance). Next, samples were incubated with an FITC- or Cy3-conjugated goat anti-rabbit IgG secondary antibody (Zymed). The slides were further counter-stained with hematoxylin or DAPI (Vector Laboratories).
Since some differentiation marker molecules were abnormally expressed in the epidermal layer, how the expression of those differentiation marker molecules changed with inhibition of Jak1 activity with a Jak inhibitor in mutant mice was examined by histoimmunological staining (FIG. 5c). By inhibiting Jak1 activity, the expression of pY-Jak1 and the expression of Ki67 in the ear skins of the mutant mice could be reduced. In contrast, in the mice receiving the solvent alone, Jak1 and Ki67 were activated in excess. […] In the ear skins of mice treated with acetone-olive oil alone, all markers were expressed at higher levels than in the skins of non-treated mice.

Assay [4] relates to ear skins of mutant mice. In words: Petrolatum coating of ear skin of mutant mice, development of dermatitis. It is filed as in vivo, mouse. Particulars: Jak inhibitor added to petrolatum. The protocol: as §1
To determine whether the destruction of the skin permeability barrier causes the development of dermatitis in the mutant mice, their ear skins were coated with petrolatum alone three times a week for 4 to 16 weeks.

In the case of `COc1cc2ncnc(Nc3ccc(O)cc3)c2cc1OC` [WHI-P131], the “inhibition of accentuated (excess) proliferation of lymphocytes” value (shortened to “inhibition of accentuated”) in assay [1] is on record as “not”; in assay [1] (listed as Jak 3 inhibitor I), “lack of proliferation inhibition”.
`O=c1c(O)c(-c2cc(O)c(O)c(O)c2)oc2cc(O)cc(O)c12` [myricetin, 3,3′,4′,5,5′,7-hexahydroxyflavone]: the “phosphorylation of Jak1” value in the assay with Jak1 was “inhibit”. In the assay with EGF receptor (EGFR), the “self-phosphorylation of EGF receptor (EGFR)” value is “increase”.
In the case of `CC(C)(C)c1nc2c3cc[nH]c(=O)c3c3cc(F)ccc3c2[nH]1` [pyridone 6], the “inhibition of accentuated” value in assay [1] was “dose-dependently inhibited”. In addition, the “inhibition of accentuated” value in assay [1] (listed as Jak inhibitor I) is reported as “inhibited dose-dependently”. Also, the “delay of development of dermatitis compared with solvent alone” value with ear skins of mutant mice [2] (150 μM in acetone/olive oil, 10 μl topically on ear skin three times a week from 4 weeks after birth) came to 1 week. For the same compound, in the assay on ear skins of mutant mice [2] (150 μM in acetone/olive oil, topical on ear skin three times a week from 4 weeks after birth), the “clinical symptoms compared with solvent alone” value is on record as “less severe clinical symptoms”. Besides, in the assay with ear skins of mutant mice [2] (Jak inhibitor applied to the skin, FIG. 5), the “development of dermatitis (in words)” value was “suppressed”. Further, in the assay on ear skins of mutant mice [2] (coating with the Jak inhibitor on ear skin), the “progression of the illness after development of dermatitis” value is “suppressed the progression of the illness”. Besides, in assay [3], the “expression of Ki67 in ear skin” value was “reduced” and the “expression of pY-Jak1 in ear skin” value is “reduced”. In addition, the “additive effect on suppression of development of the illness” value with ear skins of mutant mice [4] is “no additive effect”.

Values taken from US20120034226A1, “DIAGNOSTIC METHOD OF SKIN INFLAMMATORY DISEASE” (RIKEN, priority 2009, published 2012).
